Assay results published in patent US20100227921A1, “AMINO ACID AND PEPTIDE CARBAMATE PRODRUGS OF […] USES THEREOF” (SHIRE LLC, priority 2009, published 2010).
Where “and” joins values, the source holds several entries; their conditions need not be identical. Identical values can stand only once. Marks after values point to notes of the source that are not given here.

What was measured:
[1] = Comparative bioavailability after oral administration to rats (plasma LC-MS-MS); format: in vivo
Protocol: Test substances, i.e., tapentadol or tapentadol valine carbamate were administered by oral gavage to groups of male Sprague Dawley rats.
Blood samples were taken at various times after administration and submitted to analysis for the parent drug and pro-drug using a validated LC-MS-MS assay. Pharmacokinetic parameters derived from the plasma analytical data were determined using Win Nonlin.

[2] = 75 mg immediate release dosage; Afilalo et al. 2008; cited from earlier work
[3] = Comparative bioavailability after oral or intravenous administration to monkeys (plasma LC-MS-MS); format: in vivo, cynomolgus monkey; settings: monkey, below the quantitative limit
Protocol: Test substances i.e., tapentadol and tapentadol valine carbamate were administered (either intravenously or orally) to a group of five male cynomolgus monkeys in a three way crossover design. The oral doses were given at 1 mg tapentadol base equivalents/kg while the intravenous dose was 0.5 mg/kg
Blood samples were taken at various times after administration and submitted to analysis for the parent drug and tapentadol valine carbamate using a validated LC-MS-MS assay. Pharmacokinetic parameters derived from the plasma analytical data were determined using Win Nonlin.

[4] = male rat, oral tapentadol 10 mg free base equiv/kg, individual animals 1-5 (5 outlier)

For CC[C@@H](c1cccc(O)c1)[C@@H](C)CN(C)C (racemic) [Tapentadol, (−)-(1R,2R)-3-(3-dimethyl-amino-1-ethyl-2-methyl-propyl)-phenol], the “Plasma concentration of tapentadol” value ([1]; male rat, oral tapentadol 10 mg free base equiv/kg, 6 h, individual animals 1-5 (5 outlier)) was 1.38 ng/mL and 1.19 ng/mL and 1.25 ng/mL and 2.00 ng/mL and 5.77 ng/mL, the “Plasma concentration of tapentadol” value ([1]; male rat, oral tapentadol 10 mg free base equiv/kg, 8 h, individual animals 1-5 (5 outlier)) was 0.991 ng/mL and 1.08 ng/mL and 0.684 ng/mL and 1.27 ng/mL and 5.15 ng/mL and the “Plasma concentration of tapentadol” value ([1]; male rat, oral tapentadol 10 mg free base equiv/kg, 12 h, individual animals 1-5 (5 outlier)) was “BLQ (BLQ Values less than level of quantification (LOQ, <0.5 ng/mL))”. For the same molecule, the “Plasma concentration of tapentadol” value ([1]; male rat, oral tapentadol 10 mg free base equiv/kg, 24 h, individual animals 1-5) was “BLQ (BLQ Values less than level of quantification (LOQ, <0.5 ng/mL))”, the AUCt of tapentadol [1, 4] was 15.4 ng·h/mL and 15.3 ng·h/mL and 14.2 ng·h/mL and 20.6 ng·h/mL and 151 ng·h/mL and the Cmax of tapentadol [1, 4] was 3.98 ng/mL and 3.61 ng/mL and 5.21 ng/mL and 5.87 ng/mL and 70.5 ng/mL. The “T>50%Cmax of tapentadol” value [1, 4] was 1.5 h (2×) and 1.0 h and 0.5 h, the Tmax of tapentadol [1, 4] was 4 h and the t½ of tapentadol ([1]; male rat, oral tapentadol 10 mg free base equiv/kg, individual animals 1-5 (5 outlier; animals 1 and 4 estimates)) was 6.13^c h and 2.30 h and 3.11 h and 3.83^c h and 2.59 h. The AUC of tapentadol ([1]; male rat, oral tapentadol 10 mg free base equiv/kg, individual animals 1-5 (5 outlier; animals 1 and 4 estimates, extrapolated portion >25%)) was 24.6^c ng · h/mL and 18.4 ng · h/mL and 17.4 ng · h/mL and 27.8^c ng · h/mL and 156 ng · h/mL, the “T>50%Cmax of tapentadol” value ([1]; male rat, oral tapentadol 10 mg free base equiv/kg, median, animal 5 excluded) was 1.5^a h and the “Plasma concentration of tapentadol” value ([1]; male rat, oral tapentadol valine carbamate 10 mg tapentadol free base equiv/kg, 0.5 h, individual animals 6-10) was “BLQ (BLQ Values less than LOQ (<0.5 ng/mL))”. For the same molecule, the “Plasma concentration of tapentadol” value ([1]; male rat, oral tapentadol valine carbamate 10 mg tapentadol free base equiv/kg, 1 h, individual animals 6-10) was “BLQ (BLQ Values less than LOQ (<0.5 ng/mL))”, the “Plasma concentration of tapentadol” value ([1]; male rat, oral tapentadol valine carbamate 10 mg tapentadol free base equiv/kg, 2 h, individual animals 6-10) was “BLQ (BLQ Values less than LOQ (<0.5 ng/mL))” and the “Plasma concentration of tapentadol” value ([1]; male rat, oral tapentadol valine carbamate 10 mg tapentadol free base equiv/kg, 3 h, individual animals 6-10) was “BLQ (BLQ Values less than LOQ (<0.5 ng/mL))”. The “Plasma concentration of tapentadol” value ([1]; male rat, oral tapentadol valine carbamate 10 mg tapentadol free base equiv/kg, 4 h, individual animals 6-10) was “BLQ (BLQ Values less than LOQ (<0.5 ng/mL))”, the “Plasma concentration of tapentadol” value ([1]; male rat, oral tapentadol valine carbamate 10 mg tapentadol free base equiv/kg, 12 h, individual animals 6-10) was “BLQ (BLQ Values less than LOQ (<0.5 ng/mL))” and the “Plasma concentration of tapentadol” value ([1]; male rat, oral tapentadol valine carbamate 10 mg tapentadol free base equiv/kg, 24 h, individual animals 6-10) was “BLQ (BLQ Values less than LOQ (<0.5 ng/mL))”. The “T>50%Cmax of tapentadol” value ([1]; male rat, oral tapentadol valine carbamate 10 mg tapentadol free base equiv/kg, individual animals 6-10) was 2 h, the “T>50%Cmax of tapentadol” value ([1]; male rat, oral tapentadol valine carbamate 10 mg tapentadol free base equiv/kg, median) was 2^a h and the concentration at 0.5 h ([1]; male, Sprague Dawley, rat, plasma, po, 10 mg free base equiv/kg, oral tapentadol 10 mg free base equiv/kg, 0.5 h, mean, animal 5 excluded, read-out: Plasma concentration of tapentadol) was 2.73 ng/mL. It also gave a concentration at 1 h ([1]; male, Sprague Dawley, rat, plasma, po, 10 mg free base equiv/kg, oral tapentadol 10 mg free base equiv/kg, 1 h, mean, animal 5 excluded, read-out: Plasma concentration of tapentadol) of 4.34 ng/mL, a concentration at 2 h ([1]; male, Sprague Dawley, rat, plasma, po, 10 mg free base equiv/kg, oral tapentadol 10 mg free base equiv/kg, 2 h, mean, animal 5 excluded, read-out: Plasma concentration of tapentadol) of 2.44 ng/mL and a concentration at 3 h ([1]; male, Sprague Dawley, rat, plasma, po, 10 mg free base equiv/kg, oral tapentadol 10 mg free base equiv/kg, 3 h, mean, animal 5 excluded, read-out: Plasma concentration of tapentadol) of 1.82 ng/mL. It also gave a concentration at 4 h ([1]; male, Sprague Dawley, rat, plasma, po, 10 mg free base equiv/kg, oral tapentadol 10 mg free base equiv/kg, 4 h, mean, animal 5 excluded, read-out: Plasma concentration of tapentadol) of 2.39 ng/mL, a concentration at 6 h ([1]; male, Sprague Dawley, rat, plasma, po, 10 mg free base equiv/kg, oral tapentadol 10 mg free base equiv/kg, 6 h, mean, animal 5 excluded, read-out: Plasma concentration of tapentadol) of 1.45 ng/mL and a concentration at 8 h ([1]; male, Sprague Dawley, rat, plasma, po, 10 mg free base equiv/kg, oral tapentadol 10 mg free base equiv/kg, 8 h, mean, animal 5 excluded, read-out: Plasma concentration of tapentadol) of 1.01 ng/mL. The concentration at 12 h ([1]; male, Sprague Dawley, rat, plasma, po, 10 mg free base equiv/kg, oral tapentadol 10 mg free base equiv/kg, 12 h, individual animals 1-5 (5 outlier), read-out: Plasma concentration of tapentadol) was 1.09 ng/mL, the AUC ([1]; male, Sprague Dawley, rat, plasma, po, 10 mg free base equiv/kg, oral tapentadol 10 mg free base equiv/kg, mean, animal 5 and estimates excluded) was 17.9 ng·h/mL and the half-life ([1]; male, Sprague Dawley, rat, plasma, po, 10 mg free base equiv/kg, oral tapentadol 10 mg free base equiv/kg, mean, animal 5 and estimates excluded, read-out: t½ of tapentadol (converted)) was 2.64 h. For the same molecule, the AUC(0-t) ([1]; male, Sprague Dawley, rat, plasma, po, 10 mg free base equiv/kg, oral tapentadol 10 mg free base equiv/kg, mean, animal 5 excluded, read-out: AUCt of tapentadol) was 16.4 ng·h/mL, the Cmax ([1]; male, Sprague Dawley, rat, plasma, po, 10 mg free base equiv/kg, oral tapentadol 10 mg free base equiv/kg, mean, animal 5 excluded, read-out: Cmax of tapentadol) was 4.67 ng/mL and the Tmax ([1]; male, Sprague Dawley, rat, plasma, po, 10 mg free base equiv/kg, oral tapentadol 10 mg free base equiv/kg, median, animal 5 excluded, read-out: Tmax of tapentadol) was 1 h. For the same molecule, the patients with nausea/vomiting [2] was 30-35%, the “treated patients with constipation” value [2] was roughly 11% and the “Plasma levels of tapentadol” value ([3]; after giving the drug (tapentadol)) was less than 0.5 ng/mL. For the same molecule, the “Plasma levels of tapentadol” value ([3]; after giving the prodrug (tapentadol valine carbamate)) was less than 0.5 ng/mL.
